Tests used:
Experiment in all cases: relative viability (nuclei count vs DMSO), 5 days (fraction); higher = more cells survive
[1] = compound: CC1=C(C=CC(=C1)[N+](=O)[O-])NS(=O)(=O)C2=C(C=CC(=C2)Cl)Cl [FH535] + C[C@]1(O)C[C@@H](c2nc(-c3ccc4ccc(-c5ccccc5)nc4c3)c3c(N)nccn32)C1 [Linsitinib] (partner 1 µM)
In short: (§1)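 Lung cancer cell lines were pin-tool dosed in 1536-well plates on the day after seeding, with either a lone drug or a fixed anchor-drug dose plus five library-drug doses (not always all listed) in √10 steps. Nuclei were counted on 4× images after 5 days. Relative viability is the ratio of treated-well to vehicle-well nuclei counts, with each value a median of duplicate plates.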

[2] = compound: CC1=C(C=CC(=C1)[N+](=O)[O-])NS(=O)(=O)C2=C(C=CC(=C2)Cl)Cl [FH535] + O=C(c1cc(Cc2n[nH]c(=O)c3ccccc23)ccc1F)N1CCN(C(=O)C2CC2)CC1 [Olaparib] (partner 8 µM)
In short: as §1

[3] = compound: CC1=C(C=CC(=C1)[N+](=O)[O-])NS(=O)(=O)C2=C(C=CC(=C2)Cl)Cl [FH535] + O=C(CCCCCCC(=O)Nc1ccccc1)NO [Vorinostat] (partner 1 µM)
In short: as §1

[4] = compound: CC1=C(C=CC(=C1)[N+](=O)[O-])NS(=O)(=O)C2=C(C=CC(=C2)Cl)Cl [FH535] + Cc1nc(Nc2ncc(C(=O)Nc3c(C)cccc3Cl)s2)cc(N2CCN(CCO)CC2)n1 [Dasatinib] (partner 0.075 µM)
In short: as §1

[5] = compound: CC1=C(C=CC(=C1)[N+](=O)[O-])NS(=O)(=O)C2=C(C=CC(=C2)Cl)Cl [FH535] + Cc1cc(Nc2cc(N3CCN(C)CC3)nc(Sc3ccc(NC(=O)C4CC4)cc3)n2)n[nH]1 [Tozasertib] (partner 0.1 µM)
In short: as §1

| Cell Line | relative viability ([1]; first compound 0.04 µM) | relative viability ([1]; first compound 0.1265 µM) | relative viability ([1]; first compound 0.4 µM) | relative viability ([1]; first compound 1.265 µM) | relative viability ([2]; first compound 0.04 µM) | relative viability ([2]; first compound 0.1265 µM) | relative viability ([2]; first compound 0.4 µM) | relative viability ([2]; first compound 1.265 µM) | relative viability ([3]; first compound 0.04 µM) | relative viability ([3]; first compound 0.1265 µM) | relative viability ([3]; first compound 0.4 µM) | relative viability ([3]; first compound 1.265 µM) | relative viability ([4]; first compound 0.04 µM) | relative viability ([4]; first compound 0.1265 µM) | relative viability ([4]; first compound 0.4 µM) | relative viability ([4]; first compound 1.265 µM) | relative viability ([5]; first compound 0.04 µM) | relative viability ([5]; first compound 0.1265 µM) | relative viability ([5]; first compound 0.4 µM) | relative viability ([5]; first compound 1.265 µM) |
| --- | --- | --- | --- | --- | --- | --- | --- | --- | --- | --- | --- | --- | --- | --- | --- | --- | --- | --- | --- | --- |
| EMC-BAC-2 | 0.822 | 0.873 | 0.771 | 0.753 | 0.445 | 0.467 | 0.46 | 0.442 | 0.297 | 0.449 | 0.419 | 0.308 | 0.302 | 0.358 | 0.317 | 0.319 | 0.289 | 0.312 | 0.306 | 0.254 |
| EPLC-272H | 1.04 | 1.17 | 1.03 | 1.05 | 0.766 | 0.92 | 0.849 | 0.636 | 0.442 | 0.42 | 0.437 | 0.406 | 0.283 | 0.318 | 0.311 | 0.281 | 0.148 | 0.249 | 0.194 | 0.214 |
| H3255 | 0.87 | 1.04 | 0.884 | 0.727 | 0.515 | 0.527 | 0.514 | 0.381 | 0.804 | 0.753 | 0.729 | 0.654 | 0.341 | 0.473 | 0.408 | 0.346 | 0.62 | 0.716 | 0.659 | 0.452 |
| HARA | 0.774 | 0.889 | 1.03 | 0.584 | 0.588 | 0.873 | 0.829 | 0.353 | 0.376 | 0.489 | 0.511 | 0.341 | 0.358 | 0.194 | 0.205 | 0.182 | 0.0901 | 0.133 | 0.128 | 0.0965 |
| HCC-15 | 0.879 | 0.862 | 0.884 | 0.595 | 0.702 | 0.706 | 0.688 | 0.519 | 0.733 | 0.85 | 0.838 | 0.696 | 0.552 | 0.632 | 0.505 | 0.49 | 0.457 | 0.414 | 0.409 | 0.482 |
| HCC-78 | 0.456 | 0.557 | 0.558 | 0.527 | 0.695 | 0.764 | 0.885 | 0.673 | 0.408 | 0.429 | 0.479 | 0.414 | 0.33 | 0.514 | 0.342 | 0.427 | 0.462 | 0.397 | 0.409 | 0.414 |
| HCC-366 | 0.578 | 0.852 | 0.514 | 0.465 | 0.302 | 0.333 | 0.373 | 0.332 | 0.131 | 0.416 | 0.34 | 0.261 | 0.571 | 0.713 | 0.632 | 0.487 | 0.0788 | 0.106 | 0.123 | 0.0854 |
| HCC-827 | 0.89 | 0.937 | 0.863 | 0.714 | 0.627 | 0.676 | 0.574 | 0.359 | 0.701 | 0.846 | 0.869 | 0.664 | 0.35 | 0.291 | 0.273 | 0.364 | 0.425 | 0.452 | 0.433 | 0.347 |
| HOP-62 | 1.01 | 1.09 | 1.07 | 0.713 | 0.278 | 0.36 | 0.4 | 0.453 | 0.5 | 0.681 | 0.557 | 0.563 | 0.604 | 0.571 | 0.533 | 0.57 | 0.407 | 0.362 | 0.348 | 0.412 |
| LC-2-ad | 0.846 | 0.829 | 0.771 | 0.502 | 0.74 | 0.703 | 0.713 | 0.526 | 0.603 | 0.714 | 0.677 | 0.521 | 0.417 | 0.571 | 0.437 | 0.409 | 0.437 | 0.439 | 0.578 | 0.457 |
| LCLC-97TM1 |  | 0.202 | 0.204 | 0.185 | 0.407 | 0.342 | 0.314 | 0.274 | 0.203 | 0.568 | 0.706 | 0.745 | 0.726 | 0.797 | 0.811 | 0.77 | 0.229 | 0.284 | 0.282 | 0.161 |
| LCLC-103H | 1.06 | 1.09 | 1.21 | 0.868 | 0.757 | 0.774 | 0.75 | 0.474 | 0.569 | 0.781 | 0.694 | 0.666 | 0.441 | 0.369 | 0.353 | 0.384 | 0.417 | 0.521 | 0.516 | 0.453 |
| LK-2 | 0.477 | 0.487 | 0.673 | 0.561 | 0.579 | 0.615 | 0.942 | 0.735 | 0.166 | 0.301 | 0.29 | 0.485 | 0.308 | 0.248 | 0.294 | 0.327 | 0.166 | 0.172 | 0.169 | 0.201 |
| LOU-NH91 | 0.861 | 1.02 | 0.932 | 0.506 | 0.876 | 0.905 | 0.793 | 0.421 | 0.877 | 0.982 | 0.652 | 0.524 | 0.573 | 0.613 | 0.388 | 0.267 | 0.634 | 0.68 | 0.633 | 0.33 |
| LU99A | 0.385 | 0.546 | 0.532 | 0.571 | 0.246 | 0.28 | 0.274 | 0.283 | 0.356 | 0.484 | 0.487 | 0.464 | 0.435 | 0.439 | 0.468 | 0.507 | 0.297 | 0.281 | 0.329 | 0.273 |
